# Assay results as given in US6525001B1, “Substituted pyrimidine and pyridine herbicides” (Mid-American Commercialization Corporation, priority 1997, dated 2003).
# Columns and labels:
# Assay in all cases: Test D
# Assay type in all cases: in vivo
# [1] = test system: kochia (Kochia scoparia); set-up: key: 0 is no effect; 10 is complete control; details: POSTEMERGENCE
# Method: (§1) Compounds evaluated in this test were formulated in a non-phytotoxic solvent mixture which included a surfactant and applied to plants that were in the 1- to 4-leaf stage (postemergence application). A mixture of sandy loam soil and greenhouse potting mix in a 60:40 ratio was used for the postemergence test.
# (§2) Plantings of these crops and weed species were adjusted to produce plants of appropriate size for the postemergence test. All plant species were grown using normal greenhouse practices. Crop and weed species include alfalfa (Medicago sativa), annual bluegrass (Poa annua), blackgrass (Alopecurus myosuroides), black nightshade (Solanum nigra), chickweed (Stellaria media), common poppy (Papaver rhoeas), deadnettle (Lamium amplexicaule), downy brome (Bromus tectorum), field violet (Viola arvensis), galium 2 (Galium aparine), green foxtail (Setaria viridis), Italian ryegrass (Lolium multiflorum), jointed goatgrass (Aegilops cylindrica), kochia (Kochia scoparia), lambsquarters (Chenopodium album), lentil (Lens culinaris), littleseed canarygrass (Phalaris minor), pea (Pisum sativum), potato (Solanum tuberosum), rape (Brassica napus), redroot pigweed (Amaranthus retroflexus), Russian thistle (Salsola kali), scentless chamomile (Matricaria inodora), sorghum (Sorghum vulgare), spring barley (Hordeum vulgare), sugar beet (Beta vulgaris), sunflower (Helianthus annuus), ivyleaf speedwell (Veronica hederaefolia), spring wheat (Triticum aestivum), winter wheat (Triticum aestivum), wild buckwheat (Polygonum convolvulus), wild mustard (Sinapis arvensis), wild oat (Avena fatua), windgrass (Apera spica-venti) and winter barley (Hordeum vulgare).
# (§3) Treated plants and untreated controls were maintained in a greenhouse for approximately 21 to 28 days, after which all treated plants were compared to untreated controls and visually evaluated. Plant response ratings, summarized in Table D, are based upon a 0 to 100 scale where 0 is no effect and 100 is complete control. A dash response (−) means no test result.
# [2] = test system: redroot pigweed (Amaranthus retroflexus); set-up: key: 0 is no effect; 10 is complete control; details: POSTEMERGENCE
# Method: as §1, §2, §3
# [3] = test system: galium 2 (Galium aparine); set-up: key: 0 is no effect; 10 is complete control; details: POSTEMERGENCE
# Method: as §1, §2, §3
# [4] = test system: wild buckwheat (Polygonum convolvulus); set-up: key: 0 is no effect; 10 is complete control; details: POSTEMERGENCE
# Method: as §1, §2, §3
# [5] = test system: downy brome (Bromus tectorum); details: POSTEMERGENCE
# Method: as §1, §2, §3
# [6] = test system: annual bluegrass (Poa annua); details: POSTEMERGENCE
# Method: as §1, §2, §3
# [7] = test system: scentless chamomile (Matricaria inodora); details: POSTEMERGENCE
# Method: as §1, §2, §3
# [8] = test system: winter barley (Hordeum vulgare); details: POSTEMERGENCE
# Method: as §1, §2, §3
# [9] = test system: spring barley (Hordeum vulgare); details: POSTEMERGENCE
# Method: as §1, §2, §3
# [10] = test system: wild oat (Avena fatua); details: POSTEMERGENCE
# Method: as §1, §2, §3
# [11] = test system: littleseed canarygrass (Phalaris minor); details: POSTEMERGENCE
# Method: as §1, §2, §3
# [12] = test system: windgrass (Apera spica-venti); details: POSTEMERGENCE
# Method: as §1, §2, §3
# [13] = test system: green foxtail (Setaria viridis); details: POSTEMERGENCE
# Method: as §1, §2, §3
# [14] = test system: winter wheat (Triticum aestivum); details: POSTEMERGENCE
# Method: as §1, §2, §3
# [15] = test system: blackgrass (Alopecurus myosuroides); details: POSTEMERGENCE
# Method: as §1, §2, §3
# [16] = test system: jointed goatgrass (Aegilops cylindrica); details: POSTEMERGENCE
# Method: as §1, §2, §3
# [17] = test system: spring wheat (Triticum aestivum); details: POSTEMERGENCE
# Method: as §1, §2, §3
# [18] = test system: Italian ryegrass (Lolium multiflorum); details: POSTEMERGENCE
# Method: as §1, §2, §3
# [19] = test system: sunflower (Helianthus annuus); details: POSTEMERGENCE
# Method: as §1, §2, §3
# [20] = test system: winter wheat (Triticum aestivum); details: PREEMERGENCE
# [21] = test system: lambsquarters (Chenopodium album); details: PREEMERGENCE
# [22] = test system: sunflower (Helianthus annuus); details: PREEMERGENCE
# [23] = test system: green foxtail (Setaria viridis); set-up: key: 0 is no effect; 100 is complete control; details: PREEMERGENCE
structure (smiles),measurement,setting,value
"Cc1cnc(-c2ccc(C(F)(F)F)cc2)nc1Cc1cccc(C(F)(F)F)c1 [Example 1, 5-methyl-2-[4-(trifluoromethyl)phenyl]-4-[[3-(trifluoromethyl)phenyl]methyl]pyrimidine]","Plant response rating, Kochia",[1]; Rate 16 g/ha,0
same,"Plant response rating, Kochia",[1]; Rate 31 g/ha,60
same,"Plant response rating, Kochia",[1]; Rate 62 g/ha,80
same,"Plant response rating, Kochia",[1]; Rate 125 g/ha,70
same,"Plant response rating, Redroot pigweed",[2]; Rate 16 g/ha,0
same,"Plant response rating, Redroot pigweed",[2]; Rate 31 g/ha,70
same,"Plant response rating, Redroot pigweed",[2]; Rate 62 g/ha,70
same,"Plant response rating, Redroot pigweed",[2]; Rate 125 g/ha,50
same,"Plant response rating, Galium",[3]; Rate 16 g/ha,0
same,"Plant response rating, Galium",[3]; Rate 31 g/ha,60
same,"Plant response rating, Galium",[3]; Rate 62 g/ha,70
same,"Plant response rating, Galium",[3]; Rate 125 g/ha,70
same,"Plant response rating, Wild buckwheat",[4]; Rate 16 g/ha,0
same,"Plant response rating, Wild buckwheat",[4]; Rate 31 g/ha,0
same,"Plant response rating, Wild buckwheat",[4]; Rate 62 g/ha,0
same,"Plant response rating, Wild buckwheat",[4]; Rate 125 g/ha,20
same,"Plant response rating, Downy brome",[5]; Rate 16 g/ha,2
same,"Plant response rating, Downy brome",[5]; Rate 31 g/ha,10
same,"Plant response rating, Downy brome",[5]; Rate 62 g/ha,10
same,"Plant response rating, Downy brome",[5]; Rate 125 g/ha,10
same,"Plant response rating, Annual bluegras",[6]; Rate 16 g/ha,20
same,"Plant response rating, Annual bluegras",[6]; Rate 31 g/ha,50
same,"Plant response rating, Annual bluegras",[6]; Rate 62 g/ha,50
same,"Plant response rating, Scentless chamo",[7]; Rate 16 g/ha,30
same,"Plant response rating, Scentless chamo",[7]; Rate 31 g/ha,60
same,"Plant response rating, Scentless chamo",[7]; Rate 62 g/ha,60
same,"Plant response rating, Scentless chamo",[7]; Rate 125 g/ha,60
same,"Plant response rating, Barley (winter)",[8]; Rate 16 g/ha,5
same,"Plant response rating, Barley (winter)",[8]; Rate 31 g/ha,10
same,"Plant response rating, Barley (winter)",[8]; Rate 62 g/ha,10
same,"Plant response rating, Barley (winter)",[8]; Rate 125 g/ha,10
same,"Plant response rating, Spring Barley",[9]; Rate 16 g/ha,5
same,"Plant response rating, Spring Barley",[9]; Rate 31 g/ha,10
same,"Plant response rating, Spring Barley",[9]; Rate 62 g/ha,10
same,"Plant response rating, Spring Barley",[9]; Rate 125 g/ha,10
same,"Plant response rating, Wild oat",[10]; Rate 16 g/ha,5
same,"Plant response rating, Wild oat",[10]; Rate 31 g/ha,20
same,"Plant response rating, Wild oat",[10]; Rate 62 g/ha,20
same,"Plant response rating, Wild oat",[10]; Rate 125 g/ha,30
same,"Plant response rating, LS canarygrass",[11]; Rate 16 g/ha,10
same,"Plant response rating, LS canarygrass",[11]; Rate 31 g/ha,10
same,"Plant response rating, LS canarygrass",[11]; Rate 62 g/ha,20
same,"Plant response rating, LS canarygrass",[11]; Rate 125 g/ha,20
same,"Plant response rating, Windgrass",[12]; Rate 16 g/ha,5
same,"Plant response rating, Windgrass",[12]; Rate 31 g/ha,20
same,"Plant response rating, Windgrass",[12]; Rate 125 g/ha,30
same,"Plant response rating, Green foxtail",[13]; Rate 16 g/ha,5
same,"Plant response rating, Green foxtail",[13]; Rate 31 g/ha,10
same,"Plant response rating, Green foxtail",[13]; Rate 62 g/ha,20
same,"Plant response rating, Green foxtail",[13]; Rate 125 g/ha,20
same,"Plant response rating, Wheat (winter)",[14]; Rate 16 g/ha,5
same,"Plant response rating, Wheat (winter)",[14]; Rate 31 g/ha,10
same,"Plant response rating, Wheat (winter)",[14]; Rate 62 g/ha,10
same,"Plant response rating, Wheat (winter)",[14]; Rate 125 g/ha,10
same,"Plant response rating, Blackgrass",[15]; Rate 16 g/ha,10
same,"Plant response rating, Blackgrass",[15]; Rate 31 g/ha,10
same,"Plant response rating, Blackgrass",[15]; Rate 62 g/ha,10
same,"Plant response rating, Blackgrass",[15]; Rate 125 g/ha,30
same,"Plant response rating, Jointed goatgra",[16]; Rate 16 g/ha,5
same,"Plant response rating, Jointed goatgra",[16]; Rate 31 g/ha,10
same,"Plant response rating, Jointed goatgra",[16]; Rate 62 g/ha,10
same,"Plant response rating, Jointed goatgra",[16]; Rate 125 g/ha,10
same,"Plant response rating, Spring Wheat",[17]; Rate 16 g/ha,5
same,"Plant response rating, Spring Wheat",[17]; Rate 31 g/ha,10
same,"Plant response rating, Spring Wheat",[17]; Rate 62 g/ha,10
same,"Plant response rating, Spring Wheat",[17]; Rate 125 g/ha,20
same,"Plant response rating, I. Ryegrass",[18]; Rate 16 g/ha,5
same,"Plant response rating, I. Ryegrass",[18]; Rate 31 g/ha,10
same,"Plant response rating, I. Ryegrass",[18]; Rate 62 g/ha,10
same,"Plant response rating, I. Ryegrass",[18]; Rate 125 g/ha,10
same,"Plant response rating, Sunflower",[19]; Rate 16 g/ha,5
same,"Plant response rating, Sunflower",[19]; Rate 31 g/ha,10
same,"Plant response rating, Sunflower",[19]; Rate 62 g/ha,20
same,"Plant response rating, Sunflower",[19]; Rate 125 g/ha,20
same,"Plant response rating, Wheat (winter)",[20]; Rate 31 g/ha,10
same,"Plant response rating, Wheat (winter)",[20]; Rate 62 g/ha,10
same,"Plant response rating, Wheat (winter)",[20]; Rate 125 g/ha,20
same,"Plant response rating, Wheat (winter)",[20]; Rate 250 g/ha,40
same,"Plant response rating, Lambsquarters",[21]; Rate 31 g/ha,10
same,"Plant response rating, Lambsquarters",[21]; Rate 62 g/ha,70
same,"Plant response rating, Lambsquarters",[21]; Rate 125 g/ha,70
same,"Plant response rating, Lambsquarters",[21]; Rate 250 g/ha,70
same,"Plant response rating, Sunflower",[22]; Rate 31 g/ha,10
same,"Plant response rating, Sunflower",[22]; Rate 62 g/ha,35
same,"Plant response rating, Sunflower",[22]; Rate 125 g/ha,50
same,"Plant response rating, Sunflower",[22]; Rate 250 g/ha,30
same,"Plant response rating, Green foxtail",[23]; Rate 31 g/ha,60
same,"Plant response rating, Green foxtail",[23]; Rate 62 g/ha,100
same,"Plant response rating, Green foxtail",[23]; Rate 125 g/ha,100
same,"Plant response rating, Green foxtail",[23]; Rate 250 g/ha,100
